The record followed here is patent publication US20100168102A9, “Amide Derivatives as Kinase Inhibitors” (Devgen NV, priority 2005, published 2010).

For assay [1], the target named is T1, human ROCKα/ROCKII mix (Homo sapiens, UniProt O75116).
T1 construct: purchased Upstate Biotechnology 14-451
The assay can be described thus: Biochemical assay for ROCK (fluorescence polarization, ROCK IMAP Kit). A general note: In fluorescence polarisation assays a small probe gives low polarisation when free and higher when bound to something large.

Assay [2] deals with T2, PKC epsilon (Homo sapiens, UniProt Q02156).
T2 construct: purchased Invitrogen P2282
T2 sequence (Q02156 1-737): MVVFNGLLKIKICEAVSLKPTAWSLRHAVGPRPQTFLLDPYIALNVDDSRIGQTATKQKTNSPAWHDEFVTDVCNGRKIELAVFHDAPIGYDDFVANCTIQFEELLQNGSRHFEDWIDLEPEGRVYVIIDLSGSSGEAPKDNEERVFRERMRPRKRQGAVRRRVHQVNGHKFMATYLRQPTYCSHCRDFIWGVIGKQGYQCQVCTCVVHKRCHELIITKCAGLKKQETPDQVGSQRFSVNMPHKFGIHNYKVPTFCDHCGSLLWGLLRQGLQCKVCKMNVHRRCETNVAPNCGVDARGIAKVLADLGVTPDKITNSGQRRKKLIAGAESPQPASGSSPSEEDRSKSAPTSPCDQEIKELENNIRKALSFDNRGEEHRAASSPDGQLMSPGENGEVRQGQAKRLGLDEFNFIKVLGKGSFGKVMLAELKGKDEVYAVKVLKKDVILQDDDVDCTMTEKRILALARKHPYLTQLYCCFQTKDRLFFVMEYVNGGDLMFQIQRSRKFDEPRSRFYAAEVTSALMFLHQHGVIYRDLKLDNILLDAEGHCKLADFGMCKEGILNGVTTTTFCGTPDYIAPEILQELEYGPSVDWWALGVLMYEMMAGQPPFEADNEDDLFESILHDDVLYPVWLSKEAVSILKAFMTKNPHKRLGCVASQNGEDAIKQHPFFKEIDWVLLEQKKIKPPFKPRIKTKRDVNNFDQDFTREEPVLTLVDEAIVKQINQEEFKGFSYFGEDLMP
The assay can be described thus: Biochemical assay for PKC epsilon (fluorescence polarization, Protein Kinase C Assay Kit, Red). The conditions noted are these: read-out: IC50 μM PKCε. In a few lines: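 Read-out was fluorescence-polarization competition between phosphorylated substrate and a rhodamine PKC tracer for an anti-phosphoserine antibody, added with EDTA stop after an 80 min room-temperature kinase reaction with ATP and protein substrate (Mg2+/Ca2+ buffer). Enzyme (10 ng/ml final) was preincubated with compound for 30 min.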

Where [3] appears, read: compounds of Formula XIV, Table 3.
The mark [4] stands for this setting: Table 2, compounds of Formula XIII.

Structures can show the parent of a compound that is named as a salt. Where two headings read alike, the source gives them in different places.

T1 sequence (O75116 11-552 limits assumed): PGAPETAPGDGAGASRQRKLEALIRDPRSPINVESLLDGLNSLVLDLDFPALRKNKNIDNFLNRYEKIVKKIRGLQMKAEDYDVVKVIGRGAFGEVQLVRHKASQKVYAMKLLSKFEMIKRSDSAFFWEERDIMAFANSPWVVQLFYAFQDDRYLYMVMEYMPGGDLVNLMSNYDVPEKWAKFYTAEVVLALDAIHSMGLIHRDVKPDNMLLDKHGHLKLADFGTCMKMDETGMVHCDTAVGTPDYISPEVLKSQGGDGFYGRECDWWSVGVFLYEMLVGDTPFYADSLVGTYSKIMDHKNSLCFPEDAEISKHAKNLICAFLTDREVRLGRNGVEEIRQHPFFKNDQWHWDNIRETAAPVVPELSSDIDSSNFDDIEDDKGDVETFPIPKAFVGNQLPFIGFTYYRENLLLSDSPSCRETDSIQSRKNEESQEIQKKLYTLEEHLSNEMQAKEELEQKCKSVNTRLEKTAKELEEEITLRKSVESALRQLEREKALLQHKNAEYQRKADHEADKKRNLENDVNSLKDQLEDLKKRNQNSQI

One may read the IC50 as the concentration that inhibits the measured activity by half. In the case of `NC(CC(=O)NCCc1ccc(Cl)cc1Cl)c1ccc(C(=O)Nc2ccncc2)cc1` (stereo not shown) [Compound 303, 4-{1-Amino-2-[2-(2,4-dichloro-phenyl)-ethylcarbamoyl]-ethyl}-N-pyridin-4-yl-benzamide], the IC50 in assay [1] (setting [3]) lay in the range of 0.05 to 0.5 µM; in assay [2] (setting [3]), 0.5 to 5 µM.
As to `NC(CC(=O)NCCc1ccc(Cl)c(Cl)c1)c1ccc(C(=O)Nc2ccncc2)cc1` (stereo not shown) [Compound 304], the figures for the IC50 in assay [1] (setting [3]) and in assay [2] (setting [3]) were 0.05 to 0.5 µM and 0.5 to 5 µM, respectively.
Consider `NC(CC(=O)NCCc1ccccc1F)c1ccc(C(=O)Nc2ccncc2)cc1` (stereo not shown) [Compound 305, 4-{1-Amino-2-[2-(2-fluoro-phenyl)-ethylcarbamoyl]-ethyl}-N-pyridin-4-yl-benzamide], for which the results for the IC50 in assay [1] (setting [3]) and in assay [2] (setting [3]) were 0.05 to 0.5 µM and 0.5 to 5 µM, respectively.
With `NC(CC(=O)NCCc1cccc(F)c1)c1ccc(C(=O)Nc2ccncc2)cc1` (stereo not shown) [Compound 306], the results for the 50% inhibitory concentration (IC50) in assay [1] (setting [3]) and in assay [2] (setting [3]) were 0.5 to 5 µM and 5 to 50 µM, respectively.
Consider `NC(CC(=O)NCCc1ccc(F)cc1)c1ccc(C(=O)Nc2ccncc2)cc1` (stereo not shown) [Compound 307, 4-{1-amino-2-[2-(4-fluoro-phenyl)-ethylcarbamoyl]-ethyl}-N-pyridin-4-yl-benzamide], for which the IC50 in assay [1] (setting [3]) and in assay [2] (setting [3]) was 0.05 to 0.5 µM each time.
Regarding `CC(C)(Cc1ccc(F)cc1)NC(=O)CC(N)c1ccc(C(=O)Nc2ccncc2)cc1` (stereo not shown) [Compound 308, 4-{1-amino-2-[2-(4-fluoro-phenyl)-1,1-dimethyl-ethylcarbamoyl]-ethyl}-N-pyridin-4-yl-benzamide], the IC50 in assay [1] (setting [3]) and in assay [2] (setting [3]) was 0.05 to 0.5 µM in each case.
With `NC(CC(=O)NCCc1cccs1)c1ccc(C(=O)Nc2ccncc2)cc1` (stereo not shown) [Compound 311, 4-[1-amino-2-(2-thiophen-2-yl-ethylcarbamoyl)-ethyl]-N-pyridin-4-yl-benzamide], the IC50 in assay [1] (setting [3]) lay in the range of 0.05 to 0.5 µM; in assay [2] (setting [3]) it was 0.5 to 5 µM.
For `NC(CC(=O)NCCc1c[nH]c2ccccc12)c1ccc(C(=O)Nc2ccncc2)cc1` (stereo not shown) [Compound 313, 4-{1-Amino-2-[2-(1H-indol-3-yl)-ethylcarbamoyl]-ethyl}-N-pyridin-4-yl-benzamide] the same measures were 0.05 to 0.5 µM and 0.5 to 5 µM.
As to `Cc1ccc2[nH]cc(CCNC(=O)CC(N)c3ccc(C(=O)Nc4ccncc4)cc3)c2c1` (stereo not shown) [Compound 314, 4-{1-Amino-2-[2-(5-methyl-1H-indol-3-yl)-ethylcarbamoyl]-ethyl}-N-pyridin-4-yl-benzamide], the values for the IC50 in assay [1] (setting [3]) and in assay [2] (setting [3]) were 0.05 to 0.5 µM and 0.5 to 5 µM, respectively.
Regarding `CC(Cc1c[nH]c2ccccc12)NC(=O)CC(N)c1ccc(C(=O)Nc2ccncc2)cc1` (stereo not shown) [Compound 315, 4-{1-Amino-2-[2-(1H-indol-3-yl)-1-methyl-ethylcarbamoyl]-ethyl}-N-pyridin-4-yl-benzamide], the IC50 in assay [1] (setting [3]) fell in the range of 0.05 to 0.5 µM; in assay [2] (setting [3]), 0.5 to 5 µM.
The corresponding values for `NC(CC(=O)Nc1ccccc1)c1ccc(C(=O)Nc2ccncc2)cc1` (stereo not shown) [Compound 316] are 0.05 to 0.5 µM and 0.5 to 5 µM.
`COc1ccc(NC(=O)CC(N)c2ccc(C(=O)Nc3ccncc3)cc2)cc1` (stereo not shown) [Compound 319, 4-[1-Amino-2-(4-methoxy-phenyl-carbamoyl)-ethyl]-N-pyridin-4-yl-benzamide]: the IC50 in assay [1] (setting [3]) lay in the range of 0.05 to 0.5 µM; in assay [2] (setting [3]), 0.5 to 5 µM.
As for `NC(CC(=O)Nc1ccc(CO)cc1)c1ccc(C(=O)Nc2ccncc2)cc1` (stereo not shown) [Compound 320, 4-[1-Amino-2-(4-hydroxymethyl-phenyl-carbamoyl)-ethyl]-N-pyridin-4-yl-benzamide], the 50% inhibitory concentration (IC50) in assay [1] (setting [3]) was 0.05 to 0.5 µM; in assay [2] (setting [3]), 0.5 to 5 µM.
In the case of `NC(CC(=O)Nc1ccc2[nH]ccc2c1)c1ccc(C(=O)Nc2ccncc2)cc1` (stereo not shown) [Compound 321, 4-[1-Amino-2-(1H-indol-5-ylcarbamoyl)-ethyl]-N-pyridin-4-yl-benzamide], the IC50 was 0.05 to 0.5 µM in assay [1] (setting [3]) and 0.5 to 5 µM in assay [2] (setting [3]).
As for `NC(CC(=O)Nc1ccc2cc[nH]c2c1)c1ccc(C(=O)Nc2ccncc2)cc1` (stereo not shown) [Compound 322, 4-[1-Amino-2-(1H-indol-6-ylcarbamoyl)-ethyl]-N-pyridin-4-yl-benzamide], the IC50 in assay [1] (setting [3]) and in assay [2] (setting [3]) was 0.05 to 0.5 µM each time.
For `NC(CC(=O)Nc1cc(-c2ccco2)[nH]n1)c1ccc(C(=O)Nc2ccncc2)cc1` (stereo not shown) [Compound 323, 4-[1-Amino-2-(5-furan-2-yl-1H-pyrazol-3-ylcarbamoyl)-ethyl]-N-pyridin-4-yl-benzamide], the IC50 in assay [1] (setting [3]) was in the range of 0.05 to 0.5 µM; in assay [2] (setting [3]), 0.5 to 5 µM.
For `NC(CC(=O)NNC(=O)c1ccco1)c1ccc(C(=O)Nc2ccncc2)cc1` (stereo not shown) [Compound 325, 4-{1-amino-3[N′-(furan-2-carbonyl)-hydrazino]-3-oxo-propyl}-N-pyridin-4-yl-benzamide] the same measures were 0.05 to 0.5 µM and 0.5 to 5 µM.
Turning to `NC(CNC(=O)Nc1ccc(Cl)cc1)c1ccc(C(=O)Nc2ccncc2)cc1` (stereo not shown) [Compound 326, 4-{1-Amino-2-[3-(4-chloro-phenyl)-ureido]-ethyl}-N-pyridin-4-yl-benzamide], the IC50 in assay [1] and in assay [2] was 0.05 to 0.5 µM throughout.
Take `COc1ccc(CC(=O)NCC(N)c2ccc(C(=O)Nc3ccncc3)cc2)cc1F` (stereo not shown) [Compound 327, 4-{1-Amino-2-[2-(3-fluoro-4-methoxy-phenyl)-acetylamino]-ethyl}-N-pyridin-4-yl-benzamide]: the IC50 in assay [1] (setting [4]) was in the range of 0.05 to 0.5 µM; in assay [2] (setting [4]), 0.5 to 5 µM.
As to `COc1ccc(C2(C(=O)NCC(N)c3ccc(C(=O)Nc4ccncc4)cc3)CCCC2)cc1` (stereo not shown) [Compound 344, 4-(1-Amino-2-{[1-(4-methoxy-phenyl)-cyclopentanecarbonyl]-amino}-ethyl)-N-pyridin-4-yl-benzamide], the IC50 in assay [1] (setting [4]) and in assay [2] (setting [4]) was 0.05 to 0.5 µM throughout.
In the case of `NC(CNC(=O)C1(c2ccc(Cl)c(Cl)c2)CC1)c1ccc(C(=O)Nc2ccncc2)cc1` (stereo not shown) [Compound 345, 4-(1-Amino-2-{[1-(3,4-dichloro-phenyl)-cyclopropanecarbonyl]-amino}-ethyl)-N-pyridin-4-yl-benzamide], the IC50 in assay [1] (setting [4]) and in assay [2] (setting [4]) was 0.05 to 0.5 µM throughout.
As to `CC(C)(C(=O)NCC(N)c1ccc(C(=O)Nc2ccncc2)cc1)c1ccsc1` (stereo not shown) [Compound 346, 4-[1-Amino-2-(2-methyl-2-thiophen-3-yl-propionylamino)-ethyl]-N-pyridin-4-yl-benzamide], the IC50 in assay [1] (setting [4]) and in assay [2] (setting [4]) was 0.05 to 0.5 µM each time.
On to `NC(CNC(=O)C1(c2ccsc2)CC1)c1ccc(C(=O)Nc2ccncc2)cc1` (stereo not shown) [Compound 347, 4-{1-Amino-2-[(1-thiophen-3-yl-cyclopropanecarbonyl)-amino]-ethyl}-N-pyridin-4-yl-benzamide], for which the IC50 in assay [1] (setting [4]) and in assay [2] (setting [4]) was 0.05 to 0.5 µM each time.
Take `CC(C)(C(=O)NCC(N)c1ccc(C(=O)Nc2ccncc2)cc1)c1cccs1` (stereo not shown) [Compound 348, 4-[1-Amino-2-(2-methyl-2-thiophen-2-yl-propionylamino)-ethyl]-N-pyridin-4-yl-benzamide]: the IC50 in assay [1] (setting [4]) was 0.05 to 0.5 µM; in assay [2] (setting [4]), < 0.05 µM.
For the compound `NC(CNC(=O)C1(c2cccs2)CC1)c1ccc(C(=O)Nc2ccncc2)cc1` (stereo not shown) [Compound 349, 4-{1-Amino-2-[(1-thiophen-2-yl-cyclopropanecarbonyl)-amino]-ethyl}-N-pyridin-4-yl-benzamide], the half-inhibitory concentration (IC50) in assay [1] (setting [4]) and in assay [2] (setting [4]) was 0.05 to 0.5 µM each time.
Take `COc1ccc2c(c1)CCCC2C(=O)NCC(N)c1ccc(C(=O)Nc2ccncc2)cc1` (stereo not shown) [Compound 355, 6-Methoxy-1,2,3,4-tetrahydro-naphthalene-1-carboxylic acid {2-amino-2-[4-(pyridin-4-ylcarbamoyl)-phenyl]-ethyl}-amide]: the IC50 in assay [1] (setting [4]) and in assay [2] (setting [4]) was 0.05 to 0.5 µM throughout.
As to `NC(CC(=O)N[C@H]1CCc2ccccc21)c1ccc(C(=O)Nc2ccncc2)cc1` (stereo partly drawn) [Compound 357, 4-[1-Amino-2-((S)-indan-1-ylcarbamoyl)-ethyl]-N-pyridin-4-yl-benzamide], the IC50 in assay [1] (setting [3]) was 0.05 to 0.5 µM; in assay [2] (setting [3]) it was 0.5 to 5 µM.
Consider `NC(CC(=O)N[C@@H]1CCc2ccccc21)c1ccc(C(=O)Nc2ccncc2)cc1` (stereo partly drawn) [Compound 358, 4-[1-Amino-2-((R)-indan-1-ylcarbamoyl)-ethyl]-N-pyridin-4-yl-benzamide], for which the IC50 in assay [1] (setting [3]) and in assay [2] (setting [3]) was 0.05 to 0.5 µM throughout.
`N[C@H](CC(=O)N[C@H]1CCCc2ccccc21)c1ccc(C(=O)Nc2ccncc2)cc1` [Compound 372, 4-{(R)-1-Amino-2-[(S)-(1,2,3,4-tetrahydro-naphthalen-1-yl)carbamoyl]-ethyl}-N-pyridin-4-yl-benzamide dihydrochloric acid salt]: the IC50 lay within 0.05 to 0.5 µM in assay [1] and 0.5 to 5 µM in assay [2].
